This is an account of results in paper PMC8430704, “Novel Sulfonamide-Based Carbamates as Selective Inhibitors of BChE” (International Journal of Molecular Sciences, 2021).

Data set [1] concerns the target T1, BChE from equine serum (Equus caballus, UniProt P81908).
T1 construct: butyrylcholinesterase from equine serum; from tissue; host or cells: equine serum
Briefly: BChE inhibition, modified Ellman's method. In kind it is biochemical. The following applies: for IC50: IC50 (µM) BChE, eqBChE, modified Ellman's method, 25 °C, PBS pH 7.4, mean ± SD, n = 3; for SI (selectivity index) = IC50 (AChE)/IC50 (BChE): value over 1 = more potent inhibition of BChE; for fold higher inhibitory activity against BChE than rivastigmine: ratio of BChE IC50 vs RIV. The protocol:
Based on IC50 values for both cholinesterases, selectivity indexes (SI) as the ratio of IC50 for AChE/IC50 for BChE to quantify the preference for BChE were calculated.
(§1) The ability of all synthesized derivatives to inhibit eeAChE (acetylcholinesterase from electric eel, Electrophorus electricus) and eqBChE (butyrylcholinesterase from equine serum) was determined in vitro using the modified Ellman´s method. […] Ellmanʼs method is widely used for measuring cholinesterase activity and the efficiency of cholinesterase inhibitors. The principle of this simple method is the determination of the SH and -S-S- groups. The activity of the cholinesterase is measured indirectly by quantifying the concentration of 2-nitro-5-sulfanylbenzoic acid ion formed in the reaction between 5,5′-dithiobis-2-nitrobenzoic acid (DTNB) and thiocholine (i.e., the product of the acetylthiocholine hydrolysis catalysed by cholinesterase).
(§2) All studied compounds were dissolved in DMSO (concentration 0.01 M) and diluted in demineralized water (concentration 0.001 M). The ability of the studied compounds to inhibit eeAChE and eqBChE was determined using modified Ellman´s method at 25 °C in the presence of phosphate buffered saline (PBS, 0.1 M, pH 7.4) in a glass cuvette with 1 cm optical path. The enzyme activity in the total reaction mixture (2 mL) was 0.2 U/mL; the concentration of acetylthiocholine (ATCh) or butyrylthiocholine (BTCh) was 40 μM; and the concentration of DTNB was 0.1 mM for all reactions. The inhibitory activity of the studied derivatives was evaluated based on the ratio v0/vi (v0 is the rate of ATCh or BTCh hydrolysis in the absence of the inhibitor, vi is the rate of ATCh or BTCh hydrolysis in the presence of the inhibitor). The IC50 value was obtained from the dependence v0/vi on the concentration of the tested compound (inhibitor).
(§3) The determination of v0 was done as follows. Into the cuvette, PBS (0.1 M, pH 7.4), DTNB, and ATCh (BTCh) were placed. The enzymatic reaction was started by adding the enzyme. […] The measurement was performed at least in triplicate, and average v0 was determined.
(§4) Then, vi (for the given concentration of inhibitor) was determined. Into the cuvette, DTNB, ATCh (BTCh), a chosen volume of the suitably diluted inhibitor (to achieve the required concentration of inhibitor in the total reaction mixture), and a certain volume of PBS (to achieve the total volume of the reaction mixture 2 mL after adding the enzyme) were placed. The enzymatic reaction was started by adding the enzyme. […] Five different concentrations of the inhibitor were used, and each measurement was performed at least in duplicate.
For orientation: Ellman's reagent forms a yellow product with free thiols.

The target in a further data set is T2, AChE from electric eel (Electrophorus electricus, UniProt O42275).
T2 construct: from tissue
Briefly: AChE inhibition, modified Ellman's method. It is filed as biochemical. As for the experimental part:
as §1, §2, §3, §4

Data set [2] concerns human BChE. The note with it: cited from earlier work.
Data set [3] is described as follows: Preliminary stability test (decomposition in buffer, HPLC). The protocol:
pH (6, 7.4, 8). Measurement of these degradations was performed by HPLC in reverse phase
acetonitrile/water (98:2). The compound was stirred in a tempered buffer (37 °C) of appropriate
pH and a sample was taken for HPLC analysis at a specified time.

Data set [4] has as its system human BChE. The following applies: cited from earlier work. This is another data set of the same source.
The target in data set [5] is T1, BChE from equine serum. Briefly: Carbamylation of BChE (progressive inhibition kinetics). The following applies: from kobs vs. inhibitor concentration. It is filed as biochemical.
Experimental: The evaluation of BChE carbamylation was performed on the basis of the measured dependences % residual activity vs. time in the presence of appropriate concentration of inhibitor. […] These dependences were evaluated by non-linear regression and the pseudo-first-order rate constants kobs for progressive inhibition at several inhibitor concentrations were obtained.
The decrease in enzyme activity over time due to inhibitor binding was monitored by the Ellman´s method. Pursuant the procedure described in Carletti [86], the determination was performed subsequently: the reaction mixture containing PBS (0.1 M, pH 7.4), BChE and chosen inhibitor in an appropriate concentration was prepared and intensively stirred. In given times DTNB and BTCh were added to the sample withdrawn from stirred reaction mixture, quickly mixed and absorbance was measured. Consequently, the enzyme activity was determined. Based on knowledge of enzyme activity in the absence of the inhibitor (i.e., 100% activity), the percentages of residual activity in presence of the inhibitor were calculated. Then the dependence of percentage of residual activity vs. time was constructed [87]. By nonlinear regression of these dependences the values of kobs were obtained and subsequently rate constants for carbamylation were calculated. All experiments were performed in duplicate at least.
Data set [6] addresses T1, BChE from equine serum. Briefly: Reactivation (decarbamylation) of inhibited BChE. It is filed as biochemical. The following applies: BChE from equine serum inhibited ≥ 95%, dilution into PBS. The protocol: The procedure is described in Section 3.4.
Monitoring of enzyme reactivation was performed as follows. […] The excess inhibitor was removed by dilution into PBS. Samples were withdrawn at successive time points and assayed to measure recovery of enzymatic activity (Ellman´s method was used). […] All experiments were performed in duplicate at least.

T2 sequence (O42275 24-633): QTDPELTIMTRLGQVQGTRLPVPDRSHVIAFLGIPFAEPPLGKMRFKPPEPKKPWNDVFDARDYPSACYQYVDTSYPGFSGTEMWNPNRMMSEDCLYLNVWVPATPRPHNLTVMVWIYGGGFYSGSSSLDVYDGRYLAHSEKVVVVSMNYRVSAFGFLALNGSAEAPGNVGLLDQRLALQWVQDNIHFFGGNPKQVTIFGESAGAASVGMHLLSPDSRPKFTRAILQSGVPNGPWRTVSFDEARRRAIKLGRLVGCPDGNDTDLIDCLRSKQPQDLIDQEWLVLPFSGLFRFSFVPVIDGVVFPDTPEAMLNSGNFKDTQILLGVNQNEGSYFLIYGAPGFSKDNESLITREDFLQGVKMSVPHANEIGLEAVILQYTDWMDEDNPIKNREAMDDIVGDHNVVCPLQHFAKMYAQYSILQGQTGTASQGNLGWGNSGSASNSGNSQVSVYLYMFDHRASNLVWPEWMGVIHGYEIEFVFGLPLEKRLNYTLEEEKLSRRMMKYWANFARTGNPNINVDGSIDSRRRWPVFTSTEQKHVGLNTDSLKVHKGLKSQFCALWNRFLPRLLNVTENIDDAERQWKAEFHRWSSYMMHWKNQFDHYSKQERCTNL
T1 sequence (P81908 whole entry): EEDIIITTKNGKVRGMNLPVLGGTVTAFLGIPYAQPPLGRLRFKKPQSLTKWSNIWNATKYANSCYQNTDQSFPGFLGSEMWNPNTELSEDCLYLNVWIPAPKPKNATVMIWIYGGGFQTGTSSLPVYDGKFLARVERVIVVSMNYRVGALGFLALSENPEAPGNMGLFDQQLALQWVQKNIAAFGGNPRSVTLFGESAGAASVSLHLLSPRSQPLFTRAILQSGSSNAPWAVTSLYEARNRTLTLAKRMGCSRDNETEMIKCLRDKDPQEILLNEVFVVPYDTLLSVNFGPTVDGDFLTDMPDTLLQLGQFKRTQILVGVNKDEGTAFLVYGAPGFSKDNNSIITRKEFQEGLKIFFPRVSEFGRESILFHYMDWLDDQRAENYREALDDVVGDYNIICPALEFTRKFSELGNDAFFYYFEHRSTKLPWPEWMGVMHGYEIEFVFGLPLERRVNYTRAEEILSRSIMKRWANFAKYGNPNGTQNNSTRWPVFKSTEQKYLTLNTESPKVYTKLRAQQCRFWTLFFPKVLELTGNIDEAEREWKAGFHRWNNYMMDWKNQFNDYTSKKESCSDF

Turning to `CC(C)C[C@@H](CS(=O)(=O)NCCc1ccccc1)NC(=O)OCc1ccccc1` [Compound 5f, Benzyl {(2S)-4-methyl-1-[(2-phenylethyl)sulfamoyl]pentan-2-yl}carbamate], on BChE from equine serum [1], the IC50 worked out at 15.3 ± 0.38 µM and the “SI (selectivity index) = IC50 (AChE)/IC50 (BChE)” value (from here on “SI (selectivity index) = IC50”) is recorded as 7.50. Further, the IC50 on AChE from electric eel was 115 ± 6.22 µM.

For the compound `O=C(N[C@@H](Cc1ccccc1)CS(=O)(=O)N[C@@H]1CCCO1)OCc1ccccc1` [Compound 5i, Benzyl {(2S)-1-phenyl-3-[(2S)-tetrahydrofuran-2-ylsulfamoyl]propan-2-yl}carbamate], the IC50 on BChE from equine serum [1] was found to be 112 ± 3.41 µM; at AChE from electric eel it was 61.7 ± 1.47 µM. Also, at BChE from equine serum [1], the “SI (selectivity index) = IC50” value was 0.55.

For `CC(C)C[C@@H](CS(=O)(=O)NCc1ccc(F)c(F)c1)NC(=O)OCc1ccccc1` [Compound 5l, Benzyl {(2S)-1-[(3,4-difluorobenzyl)sulfamoyl]-4-methylpentan-2-yl}carbamate], at BChE from equine serum [1], half-maximal inhibition (IC50) required 55.6 ± 1.38 µM and the “SI (selectivity index) = IC50” value is listed as 1.67. Further, inhibition against AChE from electric eel was half-maximal at 92.9 ± 2.47 µM (IC50).

In the case of `CC(C)C[C@@H](CS(=O)(=O)NCc1ccco1)NC(=O)OCc1ccccc1` [Compound 5m, Benzyl {(2S)-1-[(furan-2-ylmethyl)sulfamoyl]-4-methylpentan-2-yl}carbamate], the figures for the IC50 against BChE from equine serum [1] and against AChE from electric eel were 19.99 ± 0.17 µM and 131.8 ± 0.42 µM, respectively.

In the case of `CCN(C)C(=O)Cl` [EMCC, N,N-ethylmethylcarbaryl chloride], in the data set on human BChE [2] (upon dilution), the “reactivation of human BChE upon dilution” value is “complete and rapid reactivation”.

For the compound `O=C(N[C@@H](Cc1ccccc1)CS(=O)(=O)Nc1ccc(Cl)c(Cl)c1)OCc1ccccc1` [Compound 5g, Benzyl {(2S)-1-[(3,4-dichlorophenyl)sulfamoyl]-3-phenylpropan-2-yl}carbamate], on BChE from equine serum [1], the midpoint of inhibition, the IC50, lay at 12.6 ± 0.31 µM and the “SI (selectivity index) = IC50” value was 6.25. Further, it took 78.83 ± 0.63 µM to reach half-maximal inhibition against AChE from electric eel (IC50).

`O=C(N[C@@H](Cc1ccccc1)CS(=O)(=O)NCc1ccccc1)OCc1ccccc1` [Compound 5b, Benzyl [(2S)-1-(benzylsulfamoyl)-3-phenylpropan-2-yl]carbamate]: the results for the IC50 on BChE from equine serum [1] and on AChE from electric eel were 86.1 ± 1.91 µM and 76.9 ± 1.52 µM, respectively. The “SI (selectivity index) = IC50” value at BChE from equine serum [1] is 0.89.

`C[C@@H](CS(=O)(=O)NCc1ccccc1)NC(=O)OCc1ccccc1` [Compound 5a, Benzyl [(2S)-1-(benzylsulfamoyl)propan-2-yl]carbamate]: at BChE from equine serum [1], half-maximal inhibition (IC50) was put at 100 ± 4.26 µM and the “SI (selectivity index) = IC50” value is 0.90. At AChE from electric eel, this compound registered an IC50 of 90.6 ± 5.7 µM.

As to `COc1ccccc1CNS(=O)(=O)C[C@H](CC(C)C)NC(=O)OCc1ccccc1` [Compound 5k, Benzyl {(2S)-1-[(2-methoxybenzyl)sulfamoyl]-4-methylpentan-2-yl}carbamate], the starting material remaining in data set [3] (buffer pH 6, 37 °C, after 6 hrs) worked out at 13%; in data set [3] (buffer pH 7.4, 37 °C, 48 hours), 36%; in data set [3] (buffer pH 8, 37 °C, 4 hours), 5%. Besides, the “substance decomposed in the first hour” value in data set [3] (buffer pH 6, 37 °C, first hour) amounted to 75%. The compound also yielded an IC50 against AChE from electric eel of 150 ± 3.82 µM.

With `CC(C)C[C@@H](CS(=O)(=O)Nc1ccccc1)NC(=O)OCc1ccccc1` [Compound 5d, Benzyl [(2S)-4-methyl-1-(phenylsulfamoyl)pentan-2-yl]carbamate], at BChE from equine serum [1], the IC50 was 16.54 ± 0.1 µM and the “SI (selectivity index) = IC50” value was found to be 3.36. On AChE from electric eel, this compound yielded an IC50 of 55.6 ± 1.38 µM.

On to `CC(C)C[C@@H](CS(=O)(=O)Nc1ccc(Cl)c(Cl)c1)NC(=O)OCc1ccccc1` [Compound 5n, Benzyl {(2S)-1-[(3,4-dichlorophenyl)sulfamoyl]-4-methylpentan-2-yl}carbamate], for which, on BChE from equine serum [1], half-maximal inhibition (IC50) required 13.5 ± 0.51 µM and the “SI (selectivity index) = IC50” value turned out to be 7.04. Besides, half-maximal inhibition against AChE from electric eel (IC50) required 95.1 ± 2.77 µM.

Consider `CCCNS(=O)(=O)C[C@H](CC(C)C)NC(=O)OCc1ccccc1` [Compound 5e, Benzyl [(2S)-4-methyl-1-(propylsulfamoyl)pentan-2-yl]carbamate], for which, at BChE from equine serum [1], the IC50 was 58.9 ± 1.88 µM and the “SI (selectivity index) = IC50” value is given as 1.84. For the same compound, inhibition against AChE from electric eel was half-maximal at 108 ± 2.39 µM (IC50).

Take `CCN(C)C(=O)Oc1cccc([C@H](C)N(C)C)c1` [RIV, rivastigmine]: the “reactivation of human BChE after 24 h” value with human BChE [2] (24 h) is on record as < 10%. Also, the “bimolecular rate constant for the carbamylation” value with human BChE [4] was 90000 M⁻¹ min⁻¹.

`O=C(N[C@@H](Cc1ccccc1)CS(=O)(=O)Nc1ccc2c(c1)OCO2)OCc1ccccc1` [Compound 5h, Benzyl [(2S)-1-(1,3-benzodioxol-5-ylsulfamoyl)-3-phenylpropan-2-yl]carbamate]: on BChE from equine serum [1], the IC50 worked out at 11.5 ± 0.28 µM and the “SI (selectivity index) = IC50” value was 5.32. Moreover, the IC50 at AChE from electric eel was 61.39 ± 0.47 µM.

With `CC(C)C[C@@H](CS(=O)(=O)NCc1ccc(Cl)cc1)NC(=O)OCc1ccccc1` [Compound 5j, Benzyl {(2S)-1-[(4-chlorobenzyl)sulfamoyl]-4-methylpentan-2-yl}carbamate], at BChE from equine serum [1], the IC50 was 6.57 ± 0.12 µM and the “fold higher inhibitory activity against BChE than rivastigmine” value is on record as “approximately 5 fold”. For the same compound, on AChE from electric eel, inhibition was half-maximal at 67.47 ± 0.37 µM (IC50). For the same compound, on BChE from equine serum [5], the “apparent bimolecular rate constant (ki) of carbamylation” value is 65.04 ± 3.21 M⁻¹ min⁻¹. Also, the “reactivation of BChE after 24 h” value at BChE from equine serum [6] is listed as 37%.

Take `CC(C)C[C@@H](CS(=O)(=O)NCc1ccccc1)NC(=O)OCc1ccccc1` [Compound 5c, Benzyl [(2S)-1-(benzylsulfamoyl)-4-methylpentan-2-yl]carbamate]: the IC50 against BChE from equine serum [1] is 8.52 ± 0.32 µM; against AChE from electric eel, 91.8 ± 4.89 µM. Further, the “fold higher inhibitory activity against BChE than rivastigmine” value at BChE from equine serum [1] was “approximately 5 fold”.

By IC50 is commonly meant the midpoint of a concentration-inhibition curve.
